{
  "source": "paper PMC5218480",
  "about": "(PLoS ONE, 2017)",
  "test_system": "MV-4-11 cells",
  "assay": "Gene expression microarray analysis (Affymetrix PrimeView) and GSEA",
  "format": "cell-based, human",
  "parameters": "RFU PODN (11730768_x_at) / Fold change /veh PODN (11730768_x_at) / RFU LINC00158 (11744669_a_at) / Fold change /veh LINC00158 (11744669_a_at) / RFU DUSP10 (11751237_a_at) / Fold change /veh DUSP10 (11751237_a_at) / RFU ID3 (11757404_x_at) / Fold change /veh ID3 (11757404_x_at) / RFU PLEKHG5 (11737974_s_at) / Fold change /veh PLEKHG5 (11737974_s_at) / RFU LRRC4B (11730491_at) / Fold change /veh LRRC4B (11730491_at) / RFU GIMAP4 (11747438_a_at) / Fold change /veh GIMAP4 (11747438_a_at) / RFU KRT8 (11758183_x_at) / Fold change /veh KRT8 (11758183_x_at) / RFU CNN1 (11734310_a_at) / Fold change /veh CNN1 (11734310_a_at) / RFU VPS37D (11726825_at) / Fold change /veh VPS37D (11726825_at) / RFU C10orf10 (11716522_x_at) / Fold change /veh C10orf10 (11716522_x_at) / RFU KIR2DL2 /// KIR2DL4 /// KIR2DL5A /// KIR2DL5B /// KIR2DS1 /// KIR2DS2 /// KIR2DS3 /// KIR2DS4 /// KIR3DL3 /// KIR3DL3 /// KIR3DS1 (11738374_at) / Fold change /veh KIR2DL2 /// KIR2DL4 /// KIR2DL5A /// KIR2DL5B /// KIR2DS1 /// KIR2DS2 /// KIR2DS3 /// KIR2DS4 /// KIR3DL3 /// KIR3DL3 /// KIR3DS1 (11738374_at) / RFU C1QL1 (11718748_at) / Fold change /veh C1QL1 (11718748_at) / RFU TMPRSS4 (11747572_a_at) / Fold change /veh TMPRSS4 (11747572_a_at) / RFU HAMP (11756126_x_at) / Fold change /veh HAMP (11756126_x_at) / RFU RNFT2 (11725882_a_at) / Fold change /veh RNFT2 (11725882_a_at) / RFU NR4A2 (11747474_a_at) / Fold change /veh NR4A2 (11747474_a_at) / RFU ABCC12 (11746883_a_at) / Fold change /veh ABCC12 (11746883_a_at) / RFU TMEM136 (11760407_x_at) / Fold change /veh TMEM136 (11760407_x_at) / RFU CLDN22 /// WWC2 (11732394_at) / Fold change /veh CLDN22 /// WWC2 (11732394_at) / RFU HLA-DPB1 (11760878_x_at) / Fold change /veh HLA-DPB1 (11760878_x_at) / RFU SPINT1 (11716480_a_at) / Fold change /veh SPINT1 (11716480_a_at) / RFU GAP43 (11754022_s_at) / Fold change /veh GAP43 (11754022_s_at) / RFU A4GNT (11735810_at) / Fold change /veh A4GNT (11735810_at) / RFU PRB3 (11715151_x_at) / Fold change /veh PRB3 (11715151_x_at) / RFU TUBB4B (11761932_at) / Fold change /veh TUBB4B (11761932_at) / RFU CAPN14 (11732068_a_at) / Fold change /veh CAPN14 (11732068_a_at) / RFU TMCC2 (11721928_a_at) / Fold change /veh TMCC2 (11721928_a_at) / RFU IRGQ (11745062_a_at) / Fold change /veh IRGQ (11745062_a_at) / RFU FAM174B (11720279_a_at) / Fold change /veh FAM174B (11720279_a_at) / RFU TMPRSS4 (11748680_a_at) / Fold change /veh TMPRSS4 (11748680_a_at) / RFU FAM212B (11763350_a_at) / Fold change /veh FAM212B (11763350_a_at) / RFU PLEKHG5 (11743358_a_at) / Fold change /veh PLEKHG5 (11743358_a_at) / RFU ZSCAN30 (11745921_a_at) / Fold change /veh ZSCAN30 (11745921_a_at) / RFU CMKLR1 (11741424_a_at) / Fold change /veh CMKLR1 (11741424_a_at) / RFU LOC101060620 /// MAPK8IP1 (11723275_at) / Fold change /veh LOC101060620 /// MAPK8IP1 (11723275_at) / RFU SPTSSB (11747773_x_at) / Fold change /veh SPTSSB (11747773_x_at) / RFU PRSS12 (11739890_at) / Fold change /veh PRSS12 (11739890_at) / RFU BIN1 (11741810_x_at) / Fold change /veh BIN1 (11741810_x_at) / RFU WNT11 (11732464_a_at) / Fold change /veh WNT11 (11732464_a_at) / RFU C10orf10 (11716521_a_at) / Fold change /veh C10orf10 (11716521_a_at) / RFU C5orf56 (11738089_at) / Fold change /veh C5orf56 (11738089_at) / RFU CYB561 (11721691_x_at) / Fold change /veh CYB561 (11721691_x_at) / RFU ANKRD19P (11752326_a_at) / Fold change /veh ANKRD19P (11752326_a_at) / RFU OR2T12 /// OR2T33 /// OR2T8 (11738714_s_at) / Fold change /veh OR2T12 /// OR2T33 /// OR2T8 (11738714_s_at) / RFU VCAN (11748164_a_at) / Fold change /veh VCAN (11748164_a_at) / RFU JSRP1 (11732532_at) / Fold change /veh JSRP1 (11732532_at) / RFU KRTAP10-11 (11738290_x_at) / Fold change /veh KRTAP10-11 (11738290_x_at) / RFU MYO3A (11730013_a_at) / Fold change /veh MYO3A (11730013_a_at) / RFU EBF3 (11725865_a_at) / Fold change /veh EBF3 (11725865_a_at) / RFU CAMK2N1 (11719241_x_at) / Fold change /veh CAMK2N1 (11719241_x_at) / RFU C5orf56 (11738088_a_at) / Fold change /veh C5orf56 (11738088_a_at) / RFU OLFML3 (11715873_a_at) / Fold change /veh OLFML3 (11715873_a_at) / RFU LOC100653217 /// NTM (11731650_a_at) / Fold change /veh LOC100653217 /// NTM (11731650_a_at) / RFU MAPK11 (11762145_a_at) / Fold change /veh MAPK11 (11762145_a_at) / RFU FIZ1 (11724087_x_at) / Fold change /veh FIZ1 (11724087_x_at) / RFU OASL (11726364_x_at) / Fold change /veh OASL (11726364_x_at) / RFU SOX15 (11748057_x_at) / Fold change /veh SOX15 (11748057_x_at) / RFU CD79A (11719716_a_at) / Fold change /veh CD79A (11719716_a_at) / RFU HIST1H1D (11736915_at) / Fold change /veh HIST1H1D (11736915_at) / RFU CASKIN2 (11723855_a_at) / Fold change /veh CASKIN2 (11723855_a_at) / RFU LOC730098 (11760151_x_at) / Fold change /veh LOC730098 (11760151_x_at) / RFU OR4N2 (11742367_at) / Fold change /veh OR4N2 (11742367_at) / RFU PRRT2 (11749266_a_at) / Fold change /veh PRRT2 (11749266_a_at) / RFU SNX32 (11753110_a_at) / Fold change /veh SNX32 (11753110_a_at) / RFU CDHR5 (11726645_a_at) / Fold change /veh CDHR5 (11726645_a_at) / RFU RCAN1 (11760418_a_at) / Fold change /veh RCAN1 (11760418_a_at) / RFU FAM167A (11723789_a_at) / Fold change /veh FAM167A (11723789_a_at) / RFU FAM26E (11764081_at) / Fold change /veh FAM26E (11764081_at) / RFU ISYNA1 (11749810_s_at) / Fold change /veh ISYNA1 (11749810_s_at) / RFU ACY1 (11761880_at) / Fold change /veh ACY1 (11761880_at) / RFU 11764098_at / Fold change /veh 11764098_at / RFU SAMD14 (11745864_x_at) / Fold change /veh SAMD14 (11745864_x_at) / RFU NPB (11741838_a_at) / Fold change /veh NPB (11741838_a_at) / RFU TMPRSS6 (11731388_a_at) / Fold change /veh TMPRSS6 (11731388_a_at) / RFU KRTAP10-2 (11738614_at) / Fold change /veh KRTAP10-2 (11738614_at) / RFU ARHGAP8 /// PRR5-ARHGAP8 (11727945_x_at) / Fold change /veh ARHGAP8 /// PRR5-ARHGAP8 (11727945_x_at) / RFU KRTAP5-7 /// NADSYN1 (11734609_at) / Fold change /veh KRTAP5-7 /// NADSYN1 (11734609_at) / RFU RASL12 (11751679_a_at) / Fold change /veh RASL12 (11751679_a_at) / RFU CDKN2B (11736163_a_at) / Fold change /veh CDKN2B (11736163_a_at) / RFU PRF1 (11729649_at) / Fold change /veh PRF1 (11729649_at) / RFU, ZNF638 /// ZNF638-IT1 / Fold change vs veh, ZNF638 /// ZNF638-IT1 / RFU, PANK3 / Fold change vs veh, PANK3 / RFU, SH3YL1 / Fold change vs veh, SH3YL1 / RFU, ZEB2 / Fold change vs veh, ZEB2 / RFU, NRIP1 / Fold change vs veh, NRIP1 / RFU, PTTG1IP / Fold change vs veh, PTTG1IP / RFU, CAPN2 / Fold change vs veh, CAPN2 / RFU, MED14 / Fold change vs veh, MED14 / RFU, SNORA58 / Fold change vs veh, SNORA58 / RFU, C1orf63 / Fold change vs veh, C1orf63 / RFU, LRRFIP1 / Fold change vs veh, LRRFIP1 / RFU, NDUFAF7 / Fold change vs veh, NDUFAF7 / RFU, SLC12A2 / Fold change vs veh, SLC12A2 / RFU, IBTK / Fold change vs veh, IBTK / RFU, ESF1 / Fold change vs veh, ESF1 / Fold change vs veh, TMEM50B / RFU, TAOK1 / Fold change vs veh, TAOK1 / RFU, ACBD3 / Fold change vs veh, ACBD3 / RFU, TMA16 / Fold change vs veh, TMA16 / RFU, RWDD3 / Fold change vs veh, RWDD3 / RFU, BCAT1 / Fold change vs veh, BCAT1 / RFU, EDEM3 / Fold change vs veh, EDEM3 / RFU, TMEM33 / Fold change vs veh, TMEM33 / RFU, WDR75 / Fold change vs veh, WDR75 / RFU, AHCTF1 / Fold change vs veh, AHCTF1 / RFU, TFRC / Fold change vs veh, TFRC / RFU, ZDHHC17 / Fold change vs veh, ZDHHC17 / RFU, NOM1 / Fold change vs veh, NOM1 / RFU, ARL8B / Fold change vs veh, ARL8B / RFU, ZBTB11 / Fold change vs veh, ZBTB11 / RFU, TAMM41 / Fold change vs veh, TAMM41 / RFU, KIAA1704 /// LOC100996395 / Fold change vs veh, KIAA1704 /// LOC100996395 / RFU, ING1 / Fold change vs veh, ING1 / RFU, TRMT61B / Fold change vs veh, TRMT61B / RFU, FUBP3 / Fold change vs veh, FUBP3 / RFU, TP53 / Fold change vs veh, TP53 / RFU, TNKS2 / Fold change vs veh, TNKS2 / RFU, ZFP14 / Fold change vs veh, ZFP14 / RFU, ACTR2 / Fold change vs veh, ACTR2 / RFU, PPP3R1 / Fold change vs veh, PPP3R1 / RFU, PIK3R1 / Fold change vs veh, PIK3R1 / RFU, HNRNPA1 / Fold change vs veh, HNRNPA1 / RFU, RNF170 / Fold change vs veh, RNF170 / RFU, ZNF28 / Fold change vs veh, ZNF28 / RFU, RNGTT / Fold change vs veh, RNGTT / RFU, OGT / Fold change vs veh, OGT / RFU, BRD1 / Fold change vs veh, BRD1 / RFU, MARS / Fold change vs veh, MARS / RFU, ZNF655 / Fold change vs veh, ZNF655 / RFU, FAHD1 / Fold change vs veh, FAHD1 / RFU, BDP1 / Fold change vs veh, BDP1 / RFU, LRRCC1 / Fold change vs veh, LRRCC1 / RFU, ARID1A / Fold change vs veh, ARID1A / RFU, ZNF146 / Fold change vs veh, ZNF146 / RFU, ZNF330 / Fold change vs veh, ZNF330 / RFU, GPN3 / Fold change vs veh, GPN3 / RFU, C9orf123 / Fold change vs veh, C9orf123 / RFU, N4BP2L2 / Fold change vs veh, N4BP2L2 / RFU, ARFIP1 / Fold change vs veh, ARFIP1 / RFU, FAM179B / Fold change vs veh, FAM179B / RFU, BCL10 / Fold change vs veh, BCL10 / RFU, UHRF1BP1L / Fold change vs veh, UHRF1BP1L / RFU, BET1 / Fold change vs veh, BET1 / RFU, CNOT2 / Fold change vs veh, CNOT2 / RFU, ZNF268 / Fold change vs veh, ZNF268 / Fold change vs veh, ZNF507 / RFU, DGCR2 / Fold change vs veh, DGCR2 / RFU, WDSUB1 / Fold change vs veh, WDSUB1 / Fold change vs veh, HSP90B1 /// MIR3652 / RFU, ADSS / Fold change vs veh, ADSS / RFU, GK / Fold change vs veh, GK / RFU, ZNF148 / Fold change vs veh, ZNF148 / RFU, TAF9 / Fold change vs veh, TAF9 / RFU, SLC1A5 / Fold change vs veh, SLC1A5 / RFU, SLMO2 / Fold change vs veh, SLMO2 / RFU, ABCC4 / Fold change vs veh, ABCC4 / RFU, LOC101060439 /// RAP1B / Fold change vs veh, LOC101060439 /// RAP1B / RFU, RFX7 / Fold change vs veh, RFX7 / RFU, GTPBP10 / Fold change vs veh, GTPBP10 / RFU, CNEP1R1 / Fold change vs veh, CNEP1R1 / RFU, BIVM-ERCC5 /// ERCC5 / Fold change vs veh, BIVM-ERCC5 /// ERCC5 / RFU, ILF3 / Fold change vs veh, ILF3 / RFU 11762660_at / Fold change /veh 11762660_at / RFU VCAN (11757783_s_at) / Fold change /veh VCAN (11757783_s_at) / RFU DDX43 (11728927_at) / Fold change /veh DDX43 (11728927_at) / RFU KRT8 (11758188_x_at) / Fold change /veh KRT8 (11758188_x_at) / RFU NKD1 (11759106_at) / Fold change /veh NKD1 (11759106_at) / RFU SRD5A1 (11742802_a_at) / Fold change /veh SRD5A1 (11742802_a_at) / RFU TPSAB1 /// TPSB2 (11721975_s_at) / Fold change /veh TPSAB1 /// TPSB2 (11721975_s_at) / RFU GSTM3 (11746129_a_at) / Fold change /veh GSTM3 (11746129_a_at) / RFU IL23R (11737362_x_at) / Fold change /veh IL23R (11737362_x_at) / RFU TMEM51 (11727254_a_at) / Fold change /veh TMEM51 (11727254_a_at) / RFU PIWIL2 (11732686_x_at) / Fold change /veh PIWIL2 (11732686_x_at) / RFU ORM1 (11744905_x_at) / Fold change /veh ORM1 (11744905_x_at) / RFU CCDC152 (11743942_at) / Fold change /veh CCDC152 (11743942_at) / RFU ECM1 (11717891_a_at) / Fold change /veh ECM1 (11717891_a_at) / RFU IL23R (11748794_a_at) / Fold change /veh IL23R (11748794_a_at) / RFU TNFAIP8L3 (11732012_x_at) / Fold change /veh TNFAIP8L3 (11732012_x_at) / RFU MBOAT4 (11741988_at) / Fold change /veh MBOAT4 (11741988_at) / RFU 11764193_at / Fold change /veh 11764193_at / RFU TMEM53 (11763286_at) / Fold change /veh TMEM53 (11763286_at) / RFU MAGEB2 (11727129_at) / Fold change /veh MAGEB2 (11727129_at) / RFU TMEM200A (11744735_a_at) / Fold change /veh TMEM200A (11744735_a_at) / RFU CCDC152 (11751479_a_at) / Fold change /veh CCDC152 (11751479_a_at) / RFU FAM211A (11726209_a_at) / Fold change /veh FAM211A (11726209_a_at) / RFU RGS16 (11746705_a_at) / Fold change /veh RGS16 (11746705_a_at) / RFU VCAN (11755009_s_at) / Fold change /veh VCAN (11755009_s_at) / RFU RHOB (11743442_s_at) / Fold change /veh RHOB (11743442_s_at) / RFU RGS16 (11720943_a_at) / Fold change /veh RGS16 (11720943_a_at) / RFU RGS16 (11720944_at) / Fold change /veh RGS16 (11720944_at) / RFU, VPS4B / Fold change vs veh, VPS4B / RFU, CREB1 / Fold change vs veh, CREB1 / RFU, DNAJC13 / Fold change vs veh, DNAJC13 / RFU, GNAQ / Fold change vs veh, GNAQ / RFU, CDK5R1 / Fold change vs veh, CDK5R1 / RFU, ZRANB3 / Fold change vs veh, ZRANB3 / RFU, CUL4A / Fold change vs veh, CUL4A / RFU, CCNY / Fold change vs veh, CCNY / RFU, UFL1 / Fold change vs veh, UFL1 / RFU, COG3 / Fold change vs veh, COG3 / RFU, DIAPH2 / Fold change vs veh, DIAPH2 / RFU, SKA2 / Fold change vs veh, SKA2 / RFU, AFF3 / Fold change vs veh, AFF3 / RFU, LMF1 / Fold change vs veh, LMF1 / RFU, IPO11 / Fold change vs veh, IPO11 / RFU, DFFB / Fold change vs veh, DFFB / RFU, FOXP1 / Fold change vs veh, FOXP1 / RFU, CARD8 / Fold change vs veh, CARD8 / RFU, STRN3 / Fold change vs veh, STRN3 / RFU, ADK / Fold change vs veh, ADK / RFU, RASSF2 / Fold change vs veh, RASSF2 / RFU, WIPF1 / Fold change vs veh, WIPF1 / RFU, LARP1B / Fold change vs veh, LARP1B / RFU, RASA1 / Fold change vs veh, RASA1 / RFU, RB1 / Fold change vs veh, RB1 / RFU, PPFIA1 / Fold change vs veh, PPFIA1 / RFU, MAT2A / Fold change vs veh, MAT2A / RFU, CCT5 / Fold change vs veh, CCT5 / RFU, WDR92 / Fold change vs veh, WDR92 / RFU, CUX1 / Fold change vs veh, CUX1 / RFU, TTC7A / Fold change vs veh, TTC7A / RFU, TMEM135 / Fold change vs veh, TMEM135 / RFU, DEPTOR / Fold change vs veh, DEPTOR / RFU, CPM / Fold change vs veh, CPM / RFU, DNAJB6 / Fold change vs veh, DNAJB6 / RFU, CACNA2D3 / Fold change vs veh, CACNA2D3 / RFU, DTX4 / Fold change vs veh, DTX4 / RFU, TFCP2 / Fold change vs veh, TFCP2 / RFU, GMCL1 /// GMCL1P1 / Fold change vs veh, GMCL1 /// GMCL1P1 / RFU, AEBP2 / Fold change vs veh, AEBP2 / RFU, SNHG1 /// SNORD22 /// SNORD25 /// SNORD26 /// SNORD27 /// SNORD28 /// SNORD29 /// SNORD31 / Fold change vs veh, SNHG1 /// SNORD22 /// SNORD25 /// SNORD26 /// SNORD27 /// SNORD28 /// SNORD29 /// SNORD31 / Fold change (Aza/veh), C12orf56 (ProbeSet 11735607_a_at) / Fold change (ACY-1035/veh), C12orf56 (ProbeSet 11735607_a_at) / Fold change (Aza/veh), FGFR1OP (ProbeSet 11751329_s_at) / Fold change (ACY-1035/veh), FGFR1OP (ProbeSet 11751329_s_at) / Fold change (Aza/veh), VPS36 (ProbeSet 11739960_a_at) / Fold change (ACY-1035/veh), VPS36 (ProbeSet 11739960_a_at) / RFU SYPL1 (11715823_x_at) / Fold change /veh SYPL1 (11715823_x_at) / RFU IGFBP7 (11715501_s_at) / Fold change /veh IGFBP7 (11715501_s_at) / RFU REEP3 (11722064_at) / Fold change /veh REEP3 (11722064_at) / RFU IGLL1 (11728026_x_at) / Fold change /veh IGLL1 (11728026_x_at): dose or concentration left out as unconfirmed",
  "conditions": "MV-4-11 cells, 48 hours",
  "data": [
    {"smiles": "Nc1ccc(-c2cccs2)cc1NC(=O)c1ccc2c(c1)cc(C1CC1)n2CCN1CCOCC1", "note": "[ACY-1035]", "values": [
      {"measurement": "Fold change /veh LRRC4B (11730491_at)", "value": 1.07}
    ]}
  ]
}
